In series [1] the test system is 20-HETE synthase originated from rat kidney microsome. As to the kind of experiment: Inhibitory effect of 20-HETE synthase originated from rat kidney microsome. The class given is biochemical. The settings on record: for Inhibition rate (1 μM): 20-HETE production without compound set to 100%. The method in brief: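 Kidney microsomes from 6-week male spontaneously hypertensive rats were used with tritium-arachidonic acid and NADPH. 20-HETE was quantified by radio-HPLC on a C18 column.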

Setting [2] is: concentration at which production of 20-HETE was inhibited to 50%.
[3] abbreviates: 1 μM of subject compound, rat kidney microsome.
[4] abbreviates: concentration at which 20-HETE production was inhibited to 50%, rat kidney microsome.
[5] abbreviates: 1 μM of the subject compound added, rat kidney microsome.
The mark [6] stands for this setting: concentration at which production of 20-HETE was inhibited to 50%, rat kidney microsome.

Structures are written as SMILES. pIC50: −log10 of the molar value.

On to `O=C1CCCN1CCCOc1ccc(N/C=N/O)cc1` [Comp. 408], for which the melting point was 177 to 177.5 °C. For the same compound, the “Inhibition rate (1 μM)” value in series [1] (1 μM of the subject compound) came out at 103.0. The same compound showed a pIC50 in series [1] (setting [2]) of 8.38.
In the same order, the values of `CC(C)Sc1ccc(N/C=N/O)cc1` [Comp. 439] are 144.1 to 144.2 °C, 92.3 and 8.54.
`O/N=C/Nc1ccc(N2CCOCC2)cc1` [Comp. 300] returned a melting point of 182 to 182.5 °C. In series [1] (setting [3]), the “Inhibition rate (1 μM)” value is 96.3. Further, in series [1] (setting [4]), the pIC50 is 8.24.
In the same order, the values of `O/N=C/Nc1ccc(OCc2cccs2)cc1` [Comp. 350] are 168 to 168.5 °C, 91 and 8.85.
As for `CCOc1ccc(N/C=N/O)cc1` [Comp. 20], the melting point was in the range of 149 to 150 °C. Also, in series [1] (setting [5]), the “Inhibition rate (1 μM)” value was found to be 97.5. The pIC50 in series [1] (setting [6]) is 6.64.
The compound `O=C([O-])CCCCCOc1ccc(N/C=N/O)cc1.[Na+]` [Comp. 425] registered a melting point of more than 300 °C. Moreover, the pIC50 in series [1] (setting [2]) is 8.52.
As to `O/N=C/Nc1ccc(OCc2cccnc2)cc1` [Comp. 362], the melting point lay within 156 to 157 °C. For the same compound, in series [1] (setting [3]), the “Inhibition rate (1 μM)” value is recorded as 106. The pIC50 in series [1] (setting [4]) was 8.68.
Compound `O/N=C/Nc1cccc2c1CCCC2` [Comp. 231] returned a melting point of 168.5 to 169 °C. Also, the “Inhibition rate (1 μM)” value in series [1] (setting [3]) is 92.9. Moreover, the pIC50 in series [1] (setting [4]) was 6.71.
Regarding `CC(=O)OCC(COc1ccc(N/C=N/O)cc1)OC(C)=O` (stereo not shown) [Comp. 435], the melting point is 133 to 134.5 °C. In series [1] (setting [2]), this compound showed a pIC50 of 8.66.
The compound `CN(C)CCOCCOc1ccc(N/C=N/O)cc1` [Comp. 404] returned a melting point of 57.5 to 59 °C. The “Inhibition rate (1 μM)” value in series [1] (1 μM of the subject compound) is on record as 114.9. This compound also gave a pIC50 in series [1] (setting [2]) of 6.94.
`COc1cccc(COc2ccc(N/C=N/O)cc2)c1OC` [Comp. 394] had a melting point of 144 to 145 °C. In addition, in series [1] (setting [3]), the “Inhibition rate (1 μM)” value is listed as 119.9. Moreover, in series [1] (setting [4]), the pIC50 was 8.41.
For the compound `CCCCc1ccccc1N/C=N/O` [Comp. 3], the melting point lay in the range of 84.5 to 85.5 °C. Also, in series [1] (setting [5]), the “Inhibition rate (1 μM)” value is 98.9.
Compound `Cc1ccc(F)c(N/C=N/O)c1` [Comp. 43] had a melting point of 123 to 124 °C. The compound further gave a pIC50 in series [1] (setting [6]) of 6.77.
Consider `CC(C)c1ccccc1N/C=N/O` [Comp. 32], for which the melting point fell in the range of 114 to 115 °C. For the same compound, in series [1] (setting [5]), the “Inhibition rate (1 μM)” value stood at 87.2.
In turn, `Cc1cc(I)ccc1N/C=N/O` [Comp. 47] came in with a melting point of 166 to 166.5 °C. In addition, the “Inhibition rate (1 μM)” value in series [1] (setting [5]) was 94.8. In addition, the pIC50 in series [1] (setting [6]) is 8.19.
`OCc1ccc(N/C=N/O)cc1` [Comp. 209] returned a melting point of 169.5 to 170 °C. Also, the “Inhibition rate (1 μM)” value in series [1] (setting [3]) is listed as 102.2. In addition, in series [1] (setting [4]), the pIC50 was 6.82.
With `O/N=C/Nc1ccc(OCc2ccsc2)cc1` [Comp. 367], the melting point was in the range of 165 to 166 °C. Also, in series [1] (setting [3]), the “Inhibition rate (1 μM)” value was found to be 103. The same compound showed a pIC50 in series [1] (setting [4]) of 8.68.
In the same order, the values of `CC#CCCOc1ccc(N/C=N/O)cc1` [Comp. 337] are 135 to 136.5 °C, 119.4 and 8.68.
Regarding `CCC(C)Sc1ccc(N/C=N/O)cc1` (stereo not shown) [Comp. 449], the melting point lay in the range of 119 to 120.5 °C. In series [1] (1 μM of the subject compound), the “Inhibition rate (1 μM)” value was determined as 105.1. For the same compound, the pIC50 in series [1] (setting [2]) is 8.74.
On to `OCC(O)COc1ccc(N/C=N/O)cc1` (stereo not shown) [Comp. 436], for which the melting point is 140.5 to 141 °C. Besides, the pIC50 in series [1] (setting [2]) is 7.10.
As for `O/N=C/Nc1ccc(OCc2ccco2)cc1` [Comp. 352], the melting point was in the range of 158.5 to 159.5 °C. Further, in series [1] (setting [3]), the “Inhibition rate (1 μM)” value is given as 97. Moreover, in series [1] (setting [4]), the pIC50 is 8.34.
The like results for `O/N=C/Nc1ccc(OCc2ccc3ccccc3n2)cc1` [Comp. 342] were, in that order, 174.5 to 175.5 °C, 98.5 and 8.28.
`CC(C)(C)Sc1ccc(N/C=N/O)cc1` [Comp. 456] yielded a melting point of 143 to 145 °C. Moreover, the “Inhibition rate (1 μM)” value in series [1] (1 μM of the subject compound) worked out at 94.4. In series [1] (setting [2]), this compound showed a pIC50 of 8.20.
The like results for `O/N=C/Nc1ccc(OCCc2cccs2)cc1` [Comp. 422] were, in that order, 132 to 134 °C, 121.6 and 8.82.
Regarding `CC1(C)OCC(COc2ccc(N/C=N/O)cc2)O1` (stereo not shown) [Comp. 348], the melting point was in the range of 128.5 to 129.5 °C. Besides, the “Inhibition rate (1 μM)” value in series [1] (setting [3]) is on record as 103. This compound had a pIC50 in series [1] (setting [4]) of 8.47.
The like results for `O/N=C/Nc1ccc(OCCCc2ccccc2)cc1` [Comp. 349] were, in that order, 152.5 to 153 °C, 100 and 8.80.
The compound `N#CCCCOc1ccc(N/C=N/O)cc1` [Comp. 430] came in with a melting point of 139.5 to 141 °C. The pIC50 in series [1] (setting [2]) is 8.13.
In the case of `CC(C)Oc1ccc(N/C=N/O)cc1` [Comp. 316], the melting point fell in the range of 144 to 146 °C. Also, the “Inhibition rate (1 μM)” value in series [1] (setting [3]) came out at 97.9. In series [1] (setting [4]), this compound gave a pIC50 of 7.62.
The compound `CC#CCOc1ccc(N/C=N/O)cc1` [Comp. 333] had a melting point of 171.5 to 172 °C. Also, the “Inhibition rate (1 μM)” value in series [1] (setting [3]) stood at 119.3. Besides, in series [1] (setting [4]), the pIC50 is 8.66.
`Cc1cc(C)c(N/C=N/O)c(Br)c1` [Comp. 45] yielded a melting point of 163.5 to 164.5 °C. The “Inhibition rate (1 μM)” value in series [1] (setting [5]) is reported as 53.5.
In the case of `O/N=C/Nc1ccc(F)cc1F` [Comp. 50], the melting point lay in the range of 155.5 to 156.5 °C. In series [1] (setting [6]), this compound had a pIC50 of 7.59.
Consider `O/N=C/Nc1ccc(OCCCc2cccnc2)cc1` [Comp. 363], for which the melting point was 154 to 155 °C. Besides, the “Inhibition rate (1 μM)” value in series [1] (setting [3]) turned out to be 105. The compound also had a pIC50 in series [1] (setting [4]) of 9.11.
`O/N=C/Nc1ccc(C2CCCCC2)cc1` [Comp. 5]: the melting point is 153 to 154 °C. Besides, in series [1] (setting [5]), the “Inhibition rate (1 μM)” value amounted to 99.9. This compound also gave a pIC50 in series [1] (setting [6]) of 8.42.
The like results for `Cc1cc(N/C=N/O)ccc1Br` [Comp. 51] were, in that order, 157 to 158 °C, 50.2 and 7.66.
In turn, `CCc1cc(C#N)ccc1N/C=N/O` [Comp. 56] had a melting point of 144 to 145.5 °C. In series [1] (setting [5]), the “Inhibition rate (1 μM)” value is reported as 50.6.
`O/N=C/Nc1ccc(OCCCOc2ccccc2)cc1` [Comp. 365] showed a melting point of 143.5 to 145 °C. Besides, the “Inhibition rate (1 μM)” value in series [1] (setting [3]) is 105. Also, the pIC50 in series [1] (setting [4]) is 8.85.
`Cc1ccc(N/C=N/O)cc1C` [Comp. 13] had a melting point of 116 to 118 °C. Besides, in series [1] (setting [5]), the “Inhibition rate (1 μM)” value was determined as 95.9. Further, the pIC50 in series [1] (setting [6]) is 6.93.
The compound `Cc1cc(C)c(N/C=N/O)c(C)c1` [Comp. 72] showed a melting point of 168 to 169 °C. Also, the “Inhibition rate (1 μM)” value in series [1] (setting [5]) amounted to 99.2.
`CSc1ccc(COc2ccc(N/C=N/O)cc2)cc1` [Comp. 387] returned a melting point of 163 to 164 °C. For the same compound, the “Inhibition rate (1 μM)” value in series [1] (setting [3]) is 97.8. Further, the pIC50 in series [1] (setting [4]) is 9.05.
For the compound `O/N=C/Nc1ccc(Oc2ccc(Cl)cc2)cc1` [Comp. 128], the melting point fell in the range of 143 to 145 °C. Further, in series [1] (setting [5]), the “Inhibition rate (1 μM)” value is recorded as 102.0. The pIC50 in series [1] (setting [6]) was 8.15.

(Values after patent publication US7078400B2, “20-HETE synthase inhibitor” (Taisho Pharmaceutical Co., Ltd., priority 1999, dated 2006).)
